Test results: patent publication US20200078463A1, “COMPOSITION HAVING IMPROVED WATER SOLUBILITY AND BIOAVAILABILITY” (SAMYANG BIOPHARMACEUTICALS CORPORATION, priority 2017, published 2020)
Counter-ions that a name gives are not always drawn.

Assay: Additive screening: dissolved sorafenib in pH 1.2 buffer by HPLC
Assay type: physicochemical
Conditions: 100 mg sorafenib tosylate (crystalline form III) + 10 mg additive in 1 ml pH 1.2 buffer, shaken at 1,100 rpm for 24 hours, filtered 0.45 μm
Protocol: In order to test the content of drug included in the formulation, it was analyzed by HPLC using the following test method.
(1) Buffer preparation: After dissolving 0.77 g ammonium acetate in 1000 ml of water, the pH of the solution was adjusted to 6.8±0.05 using ammonia solutions.
(2) The solution of (1) and acetonitrile were mixed at 40:60 (v/v), and the solution filtered with a filter paper having a pore size of 0.45 μm and degassed was used as a mobile phase.
The buffer solution (1) and acetonitrile were mixed at 30:70 (v/v) to obtain a dilution solution.
1 ml of the standard solution (300 μg/ml) was precisely taken, and 2 ml of the diluted solution was added to prepare a standard solution (100 μg/ml). 1 ml of the standard solution (300 μg/ml) was precisely taken, and 4 ml of the diluted solution was added to prepare a standard solution (60 μg/ml). 1 ml of the standard solution (100 μg/ml) was precisely taken, and 4 ml of the diluted solution was added to prepare a standard solution (20 μg/ml). A calibration curve was drawn using the four standard solutions and used to calculate the content of the test solution.
Detector: ultraviolet absorbance photometer (wavelength 265 nm)
Column: Eclipse XDB-C18, 4.6 mm×150 mm, 5 μm or equivalent column
Column temperature: 27° C.
It was shaken at 1,100 rpm for 24 hours. […]

## CNC(=O)c1cc(Oc2ccc(NC(=O)Nc3ccc(Cl)c(C(F)(F)F)c3)cc2)ccn1 [No polymer, sorafenib tosylate]
  Concentration of dissolved sorafenib: 100 ng/mL
